According to article doi:10.1101/2020.11.24.395954v2 (biorxiv, 2021):

What was measured:
[1] = biological target: T1, PpKAI2L-D (Physcomitrium patens, UniProt A9SSF6); settings: apparent Kd
T1 sequence (A9SSF6 1-271): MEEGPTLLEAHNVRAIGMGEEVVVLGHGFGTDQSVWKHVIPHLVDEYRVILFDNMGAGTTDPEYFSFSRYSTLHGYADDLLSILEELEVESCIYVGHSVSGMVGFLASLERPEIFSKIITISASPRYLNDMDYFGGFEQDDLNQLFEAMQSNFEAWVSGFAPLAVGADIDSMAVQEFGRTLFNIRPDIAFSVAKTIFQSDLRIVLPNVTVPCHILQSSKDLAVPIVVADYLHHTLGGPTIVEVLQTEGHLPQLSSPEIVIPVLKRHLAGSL

[2] = biological target: T2, AtKAI2 (Arabidopsis thaliana, UniProt Q9SZU7); assay: biochemical
T2 sequence (Q9SZU7 1-270): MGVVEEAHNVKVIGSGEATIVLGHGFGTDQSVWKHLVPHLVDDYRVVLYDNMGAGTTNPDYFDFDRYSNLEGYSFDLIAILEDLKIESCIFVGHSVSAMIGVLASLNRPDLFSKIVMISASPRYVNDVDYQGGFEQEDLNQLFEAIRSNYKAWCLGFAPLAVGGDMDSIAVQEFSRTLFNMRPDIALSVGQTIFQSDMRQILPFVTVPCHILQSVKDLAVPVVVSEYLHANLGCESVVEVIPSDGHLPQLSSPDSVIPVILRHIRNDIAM

[3] = biological target: AtD14 (Arabidopsis thaliana, UniProt Q9SQR3); assay: biochemical
AtD14, sequence (Q9SQR3 whole entry): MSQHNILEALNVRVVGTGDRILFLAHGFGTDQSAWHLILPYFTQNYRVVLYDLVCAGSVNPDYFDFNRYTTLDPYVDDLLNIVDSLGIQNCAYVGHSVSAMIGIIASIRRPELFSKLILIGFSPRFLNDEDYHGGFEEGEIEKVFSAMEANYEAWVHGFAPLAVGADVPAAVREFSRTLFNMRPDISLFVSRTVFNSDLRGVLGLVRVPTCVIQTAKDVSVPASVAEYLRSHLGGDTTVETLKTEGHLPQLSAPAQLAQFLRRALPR

[4] = biological target: T3, PpKAI2L-E (Physcomitrium patens, UniProt A9ST85); settings: apparent Kd
T3 sequence (A9ST85 1-270): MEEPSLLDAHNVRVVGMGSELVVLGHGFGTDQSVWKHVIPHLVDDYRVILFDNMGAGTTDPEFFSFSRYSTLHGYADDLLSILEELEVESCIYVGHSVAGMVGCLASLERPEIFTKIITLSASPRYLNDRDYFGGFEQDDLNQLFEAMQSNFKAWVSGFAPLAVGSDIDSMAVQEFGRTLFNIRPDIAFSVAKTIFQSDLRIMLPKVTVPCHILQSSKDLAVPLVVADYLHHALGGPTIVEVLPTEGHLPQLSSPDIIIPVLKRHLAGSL

[5] = biological target: T4, PpKAI2L-K (Physcomitrium patens, UniProt A9S299); settings: apparent Kd
T4 sequence (A9S299 1-270): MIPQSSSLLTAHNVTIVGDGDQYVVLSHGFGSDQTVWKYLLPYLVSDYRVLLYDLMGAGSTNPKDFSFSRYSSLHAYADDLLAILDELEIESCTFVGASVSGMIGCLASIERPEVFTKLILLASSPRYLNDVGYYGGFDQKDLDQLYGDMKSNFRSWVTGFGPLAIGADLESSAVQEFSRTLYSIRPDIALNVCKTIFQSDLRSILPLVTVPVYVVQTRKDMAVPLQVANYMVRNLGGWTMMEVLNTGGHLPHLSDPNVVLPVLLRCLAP

[6] = substrate: CC(=O)Oc1ccc([N+](=O)[O-])cc1; assay: purified protein

With `CC1=C[C@@H](O/C=C2/C(=O)O[C@H]3c4ccccc4C[C@@H]23)OC1=O` [(-)-GR24] the Kd [1] was 92 µM, the Kd [2] was 45 µM and the Kd [3] was 94 µM. For the same molecule, the Kd [4] was 39 µM and the Kd [5] was 41 µM.

Molecule `CC1=C[C@H](O/C=C2/C(=O)O[C@@H]3c4ccccc4C[C@H]23)OC1=O` [(+)-GR24] has a Kd [3] of 22.8 ± 9.27 µM and a Kd [5] of 107 µM.

B1: PpKAI2L-H (Physcomitrium patens) (protein)
chain: MPSPLLSTHNVTVLGNRSDPVVVLGHGLGTDQSVWKYTVPSLVNQNFQVVLYDTMGAGSTETSDFNFKRYSSLQGHVDDLLAILDELEIENCVYVGHSMSGMIGVLASLERPDLFRKLILLSASPRYLNDSSYYGGFEQEDLDQLFSSMRSNFSAWVSGFATAAVGTDIHDEAVQEFSSTFISMRPDVALRTSQFVFQSDFRSILSEVTVPCHIVQSRKDIAVPIEVAEYLRCNLGGWTSVDILQTDGHLPQLSCPELVVPVLLHCIDS
B1 gave a Km [6] of 2381 ± 644 µM and a kcat [6] of 34.02 ± 5.83 s⁻¹.

B2: AtKAI2 (Arabidopsis thaliana) (protein)
chain: T2 sequence (Q9SZU7 1-270)
Molecule B2 has a Km [6] of 610.1 ± 36.69 µM and a kcat [6] of 2.647 ± 0.06558 s⁻¹.
